Experiment [1] concerns the target T1, GCN2 (Homo sapiens, UniProt Q9P2K8). Kind of experiment: GCN2 enzyme inhibition assay (Reaction Biology EIF2AK4/GCN2 kinase assay). The format is biochemical. Details: purchased Reaction Biology Corp. As to conditions: human GCN2 enzyme activity, 10 μM ATP, 20 μM peptide substrate. As to the method: In order to validate the above results, human GCN2 enzyme activity was measured in Reaction Biology Corp (EIF2AK4/GCN2 kinase assay). Compounds were tested in 5-dose IC50 mode for non-active compounds and 10-dose IC50 mode for active compounds with 3-fold serial dilution starting at 30 μM and 0.1 μM respectively. Control compound Staurosporine was tested in 10-dose IC50 mode with 4-fold serial dilution starting at 20 μM. Reactions were carried out at 10 μM ATP using 20 μM peptide substrate [GRSRSRSRSR]. For IC50 values: +++ refers to <10 nM of test compound; ++ refers to 10 nM to 100 nM of test compound; + refers to 100 nM to 1,000 nM of test compound and − refers to >1,000 nM of test compound.

Experiment [2] addresses T2, GCN2 (Mus musculus, UniProt Q9QZ05).
T2 construct: endogenous in cells; host or cells: Neuro 2a (N2a)
As to the kind of experiment: GCN2 inhibition cell-based assay (P-GCN2 Western blot in Neuro 2a cells). The conditions noted are these: amino acid deprived media (DMEM lacking L-cysteine and methionine), 3 hours.

Experiment [3] addresses T1, GCN2. As to the kind of experiment: GCN2 activation induced by arginine starvation (Western blot). As to conditions: HT29 and HCT116 colorectal cancer cell lines, 24 hours. Format: cell-based. Details: endogenous in cells; host or cells: HT29 and HCT116. The procedure: Colorectal cancer cell lines HT29 and HCT116 were seeded at a concentration of 100×10^3 cells per well in 6 well plates, in SILAC DMEM Flex media supplemented with 10% fetal bovine serum, 1 g/L glucose, 2 mM glutamine, 800 μM lysine, and various concentrations of arginine in the absence or presence of Compound 1 and Compound 2 GCN2 inhibitors. Cells were cultured for 24 hours.
Following 24 hours of culture, expression of phosphorylated GCN2 (P-GCN2) and alpha-actinin loading control was assessed by Western blot. Briefly, cells were washed with cold PBS and dissolved in cell lysis buffer containing 1% Triton, supplemented with protease inhibitors and phosphatase inhibitors. All lysates were freshly prepared and normalized using a BCA protein assay before addition of LDS sample buffer and denaturation by boiling the samples for 5 minutes at 95° C. Proteins were separated on 4-12% Bis-Tris protein gels in MOPS SDS buffer and electrophoresis was performed (e.g., Novex NuPAGE® Gel Electrophoresis Systems; Invitrogen). Transfer of the protein samples was performed (e.g., using the Mini Trans-Blot Cell® system; Bio-Rad) with 0.45 μM pore Nitrocellulose/Filter paper sandwiches and transfer buffer at 350 mA for 90 minutes at 4° C. Membranes were blocked for 1 hour with 4% BSA in TBS-Tween at room temperature and incubated with 1:1,000 dilutions of anti-GCN2, phospho-GCN2, α-actinin1, and/or p21 (Waf/Cip1) antibodies overnight at 4° C. Afterwards, membranes were washed 3 times with TBS-Tween and incubated with HRP-conjugated secondary antibodies at 1:20,000 dilution for 1 hour at room temperature.

Another experiment concerns HT29 cells. As to the kind of experiment: Proliferation and apoptosis of colorectal cancer cells (live-cell imaging). The format is cell-based. The conditions noted are these: 10 μM, 64 μM arginine, up to 96 hours, vs untreated cells; for rate of apoptotic cell death: YO-PRO-1 uptake. The procedure:
Proliferation and apoptosis of HT29 cells was determined in the presence of Compound 1 and Compound 2. Briefly, cells were seeded in 96-well flat bottom plates at 4,000 cells per well in 100 μL SILAC DMEM Flex media without phenol red, supplemented with 10% fetal bovine serum (FBS), 1 g/L glucose, 2 mM glutamine, 220 μM lysine, containing a physiological concentration of arginine (64 μM). After 24 hours, cells were treated with 10 μM vehicle control (Control; 0.1% DMSO), 10 μM Compound 1, or 10 μM Compound 2, together with 100 nM of fluorescent apoptosis stain (YO-PRO™-1 Iodide; Thermo Fisher) to detect apoptotic cells. Cells were placed in a live-cell imaging and analysis platform (IncuCyte ZOOM®; Essenbio) set up in a humidified incubator at 37° C. and the plates were scanned every 4 hours for up 96 hours, at 10× magnification to determine cell confluence and cell death. Experiments were performed in duplicate with 3 images collected per well and analyzed using live-cell imaging and analysis software (e.g., IncuCyte ZOOM® 2018A software; Essenbio).

pIC50: −log10 of the molar value.

T1 sequence (Q9P2K8 whole entry): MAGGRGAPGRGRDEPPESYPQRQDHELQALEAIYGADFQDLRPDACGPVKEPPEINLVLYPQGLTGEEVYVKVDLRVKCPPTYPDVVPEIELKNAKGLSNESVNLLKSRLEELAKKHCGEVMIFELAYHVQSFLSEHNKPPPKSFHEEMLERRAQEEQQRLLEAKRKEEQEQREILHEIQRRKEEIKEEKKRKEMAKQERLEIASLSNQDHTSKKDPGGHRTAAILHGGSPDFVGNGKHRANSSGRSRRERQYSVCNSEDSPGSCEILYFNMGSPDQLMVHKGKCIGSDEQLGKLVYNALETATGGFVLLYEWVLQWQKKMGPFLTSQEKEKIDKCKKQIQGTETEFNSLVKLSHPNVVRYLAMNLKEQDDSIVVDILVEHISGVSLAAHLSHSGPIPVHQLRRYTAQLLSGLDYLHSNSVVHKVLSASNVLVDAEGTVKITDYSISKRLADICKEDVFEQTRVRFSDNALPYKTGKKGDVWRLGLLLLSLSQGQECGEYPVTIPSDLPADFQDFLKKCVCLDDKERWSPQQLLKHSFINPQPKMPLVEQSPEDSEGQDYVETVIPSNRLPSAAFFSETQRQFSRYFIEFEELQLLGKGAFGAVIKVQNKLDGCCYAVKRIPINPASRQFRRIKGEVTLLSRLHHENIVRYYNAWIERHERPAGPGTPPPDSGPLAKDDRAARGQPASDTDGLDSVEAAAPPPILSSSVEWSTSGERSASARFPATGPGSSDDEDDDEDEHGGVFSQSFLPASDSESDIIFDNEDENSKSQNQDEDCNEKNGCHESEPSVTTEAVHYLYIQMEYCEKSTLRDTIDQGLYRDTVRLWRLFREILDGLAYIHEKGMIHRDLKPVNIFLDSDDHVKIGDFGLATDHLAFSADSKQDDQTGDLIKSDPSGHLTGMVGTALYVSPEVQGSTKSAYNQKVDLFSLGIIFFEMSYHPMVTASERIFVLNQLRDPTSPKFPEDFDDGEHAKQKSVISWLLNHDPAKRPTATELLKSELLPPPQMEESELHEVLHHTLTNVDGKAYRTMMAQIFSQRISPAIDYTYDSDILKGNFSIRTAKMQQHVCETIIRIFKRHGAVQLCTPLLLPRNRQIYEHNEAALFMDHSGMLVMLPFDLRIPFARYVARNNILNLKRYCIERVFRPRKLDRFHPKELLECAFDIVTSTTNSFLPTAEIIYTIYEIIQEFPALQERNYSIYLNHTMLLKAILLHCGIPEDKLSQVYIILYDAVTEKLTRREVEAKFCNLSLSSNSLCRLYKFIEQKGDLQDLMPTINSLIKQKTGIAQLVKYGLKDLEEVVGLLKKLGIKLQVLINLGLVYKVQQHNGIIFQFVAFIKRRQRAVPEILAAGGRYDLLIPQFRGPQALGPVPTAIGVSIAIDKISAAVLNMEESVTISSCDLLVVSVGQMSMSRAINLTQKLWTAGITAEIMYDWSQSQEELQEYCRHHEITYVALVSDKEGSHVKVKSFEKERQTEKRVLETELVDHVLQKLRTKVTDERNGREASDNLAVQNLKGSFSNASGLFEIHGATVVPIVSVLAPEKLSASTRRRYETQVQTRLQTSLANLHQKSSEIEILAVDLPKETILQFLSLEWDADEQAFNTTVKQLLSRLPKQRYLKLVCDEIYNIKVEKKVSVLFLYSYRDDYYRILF
T2 sequence (Q9QZ05 whole entry): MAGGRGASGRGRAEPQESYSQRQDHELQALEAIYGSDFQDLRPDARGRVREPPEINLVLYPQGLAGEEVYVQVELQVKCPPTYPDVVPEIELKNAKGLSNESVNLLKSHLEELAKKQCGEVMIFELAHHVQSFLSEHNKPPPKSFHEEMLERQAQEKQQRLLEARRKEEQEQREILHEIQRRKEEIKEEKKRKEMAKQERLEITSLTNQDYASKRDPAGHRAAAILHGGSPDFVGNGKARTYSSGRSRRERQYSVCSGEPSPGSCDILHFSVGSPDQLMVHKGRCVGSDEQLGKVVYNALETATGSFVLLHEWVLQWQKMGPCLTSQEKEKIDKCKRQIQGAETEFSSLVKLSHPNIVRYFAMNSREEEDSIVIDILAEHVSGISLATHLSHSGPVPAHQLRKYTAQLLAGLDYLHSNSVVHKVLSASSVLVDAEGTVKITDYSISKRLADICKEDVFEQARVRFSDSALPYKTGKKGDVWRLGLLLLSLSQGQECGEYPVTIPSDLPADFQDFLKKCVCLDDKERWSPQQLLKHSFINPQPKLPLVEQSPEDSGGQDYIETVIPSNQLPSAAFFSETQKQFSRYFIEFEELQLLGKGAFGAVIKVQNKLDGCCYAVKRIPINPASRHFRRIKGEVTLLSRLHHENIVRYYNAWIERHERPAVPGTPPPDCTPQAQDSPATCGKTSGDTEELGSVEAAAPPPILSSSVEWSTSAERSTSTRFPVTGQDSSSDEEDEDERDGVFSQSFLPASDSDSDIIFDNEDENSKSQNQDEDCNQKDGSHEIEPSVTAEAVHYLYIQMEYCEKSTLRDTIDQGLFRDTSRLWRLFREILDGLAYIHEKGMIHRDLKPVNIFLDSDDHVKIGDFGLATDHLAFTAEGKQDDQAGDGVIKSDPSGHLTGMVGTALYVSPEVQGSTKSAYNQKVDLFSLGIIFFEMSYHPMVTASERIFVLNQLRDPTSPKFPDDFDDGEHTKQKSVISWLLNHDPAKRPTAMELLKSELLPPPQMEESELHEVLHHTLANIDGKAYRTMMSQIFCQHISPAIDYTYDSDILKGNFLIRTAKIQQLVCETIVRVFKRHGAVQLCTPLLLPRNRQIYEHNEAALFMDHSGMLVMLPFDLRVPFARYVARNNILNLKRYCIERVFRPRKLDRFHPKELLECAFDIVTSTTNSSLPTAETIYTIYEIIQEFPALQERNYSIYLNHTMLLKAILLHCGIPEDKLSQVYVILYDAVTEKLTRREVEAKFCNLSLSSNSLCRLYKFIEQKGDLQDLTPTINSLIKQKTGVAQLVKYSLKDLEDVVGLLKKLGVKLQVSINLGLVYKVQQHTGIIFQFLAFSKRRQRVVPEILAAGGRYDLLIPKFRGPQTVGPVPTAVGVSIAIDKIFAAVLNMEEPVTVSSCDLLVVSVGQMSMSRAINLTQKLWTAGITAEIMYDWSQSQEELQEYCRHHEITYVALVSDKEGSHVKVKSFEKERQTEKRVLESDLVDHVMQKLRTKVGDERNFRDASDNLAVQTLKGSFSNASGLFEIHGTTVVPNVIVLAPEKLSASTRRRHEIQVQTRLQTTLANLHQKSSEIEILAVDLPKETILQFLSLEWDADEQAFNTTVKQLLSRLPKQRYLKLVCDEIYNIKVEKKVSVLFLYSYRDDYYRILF

On to `COc1ncc(Cl)cc1S(=O)(=O)Nc1ccc(F)c(-c2ccc3nc(N)ncc3c2)c1F` [Compound 1], for which the pIC50 at GCN2 [1] was 7.00 to 8.00. Further, on GCN2 [2], the negative-log IC50 (pIC50) is > 8.00. Also, at GCN2 [3], the “activation of GCN2 (P-GCN2 expression) upon arginine depletion” value is given as “prevented the activation of GCN2 upon arginine depletion” and the p21 expression entry is reported as “p21 expression is induced”. In the experiment on HT29 cells, the “rate of apoptotic cell death” value is listed as “increased rate of apoptotic cell death” and the “cell density / confluence” value is listed as “grew less dense”.

For `Nc1ncc2cc(-c3c(F)ccc(NS(=O)(=O)c4cc(Cl)ccc4Cl)c3F)ccc2n1` [Compound 2], the negative-log IC50 (pIC50) against GCN2 [1] is > 8.00. Also, the negative-log IC50 (pIC50) at GCN2 [2] is > 8.00. In addition, on GCN2 [3], the “activation of GCN2 (P-GCN2 expression) upon arginine depletion” value is “prevented the activation of GCN2 upon arginine depletion” and the p21 expression entry was “p21 expression is induced”. Also, in the experiment on HT29 cells, the “rate of apoptotic cell death” value was “increased rate of apoptotic cell death” and the “cell density / confluence” value is “grew less dense”.

(Values after patent publication US12630529B2, “GCN2 modulator compounds” (ALESTA THERAPEUTICS BV, priority 2020, dated 2026).)
